In publication PMC6523814, “Small-Molecule Host-Defense Peptide Mimetic Antibacterial and Antifungal Agents Activate Human and Mouse Mast Cells via Mas-Related GPCRs” (Cells, 2019):
Values after ≈ are worked out from the molar mass of the structure shown.

Experiments:
[1] = system: methicillin-resistant S. aureus (MRSA); design: method as in PMID 26501484; conditions: cited from earlier work
[2] = system: Candida albicans (ATCC GDH2346); experiment: Fungus MIC assay (CLSI C27-A3); type: cell-based; conditions: RPMI/MOPS pH 7.0, 35 °C, 48 h; for MIC: Candida albicans
Description: (§1) Fungal strains included a clinical isolate of Candida albicans (ATCC GDH2346), Aspergillus fumigatus (ATCC MYA-3626), and Aspergillus flavus (ATCC 204304). Minimum inhibitory concentration (MIC) assays were carried out in 96-well plates using the Clinical and Laboratory Standards Institute (CLSI) method C27-A3 for C. albicans and M38-A2 for Aspergillus species. smHDPMs, each in stock solutions of 10 mM in DMSO, were diluted in 50 µL RPMI/MOPS pH 7.0 in a 96-well plate and 50 µL of diluted yeast were added to each well. […] The plate was then incubated at 35 °C for 48 h. […] All MIC assays were performed in duplicate.

[3] = system: Aspergillus fumigatus (ATCC MYA-3626); experiment: Fungus MIC assay (CLSI M38-A2); type: cell-based; conditions: RPMI/MOPS pH 7.0, 35 °C, 48 h; for MIC: Aspergillus fumigatus
Description: as §1

[4] = system: Aspergillus flavus (ATCC 204304); experiment: Fungus MIC assay (CLSI M38-A2); type: cell-based; conditions: RPMI/MOPS pH 7.0, 35 °C, 48 h; for MIC: Aspergillus flavus, ATCC204304
Description: as §1

[5] = system: human transformed liver HepG2 cells (ATCC HB-8065); experiment: Cytotoxicity, MTS viability assay; type: cell-based
Description: (§2) Cytotoxicity (50% […] concentration, CC50) was determined against mouse 3T3 fibroblasts (ATCC CRL-1658) and human transformed liver HepG2 cells (ATCC HB-8065) using an MTS viability assay according to the manufacturer’s protocol (Promega CellTiter 96 aqueous nonradioactive cell proliferation assay). Briefly, 3T3 cells were seeded at 2 × 10^4 cells/well in Dulbecco’s modified Eagle’s medium (DMEM) supplemented with 10% bovine calf serum and HepG2 cells were seeded at 3 × 10^4 cells/well in MEM supplemented with 10% fetal bovine serum. After 24 h of growth, the culture medium was replaced with medium lacking serum, and eight two-folds dilutions of each of the five compounds were added. […] Following incubation for 1 h at 37 °C, compound solutions were removed and medium containing serum was replenished. Viability was determined by addition of the tetrazolium compound, MTS, and the electron coupling agent, PMS, and then incubation at 37 °C for 2 h (3T3 cells) or 3 h (HepG2 cells) followed by absorbance measurements at 490 nm. The CC50 was calculated using GraphPad Prism software (nonlinear fit).

[6] = Cytotoxicity, MTS viability assay; type: cell-based, human; conditions: human, HepG2 cells (ATCC HB-8065); 1 h exposure in serum-free medium, MTS
Description: as §2

[7] = Cytotoxicity, MTS viability assay; type: cell-based, mouse; conditions: mouse, 3T3 fibroblasts (ATCC CRL-1658); 1 h exposure in serum-free medium, MTS
Description: as §2

[8] = system: mouse 3T3 fibroblasts (ATCC CRL-1658); experiment: Cytotoxicity, MTS viability assay; type: cell-based; conditions: for fold less cytotoxic than Compound 2: CC50 in 3T3 and HepG2 cells relative to Compound 2
Description: as §2

[9] = molecular target: T1, MRGPRX2 (Homo sapiens, UniProt Q96LB1); experiment: Degranulation (β-hexosaminidase release) in RBL-2H3 cells expressing MRGPRX2; type: cell-based; conditions: for EC50: RBL-2H3 cells stably expressing MRGPRX2, 30 min; for percentage degranulation (β-hexosaminidase release): 3 µM, 30 min, RBL-2H3 cells stably expressing MRGPRX2
T1 construct: HA (hemagglutinin)
T1 sequence (Q96LB1 1-330): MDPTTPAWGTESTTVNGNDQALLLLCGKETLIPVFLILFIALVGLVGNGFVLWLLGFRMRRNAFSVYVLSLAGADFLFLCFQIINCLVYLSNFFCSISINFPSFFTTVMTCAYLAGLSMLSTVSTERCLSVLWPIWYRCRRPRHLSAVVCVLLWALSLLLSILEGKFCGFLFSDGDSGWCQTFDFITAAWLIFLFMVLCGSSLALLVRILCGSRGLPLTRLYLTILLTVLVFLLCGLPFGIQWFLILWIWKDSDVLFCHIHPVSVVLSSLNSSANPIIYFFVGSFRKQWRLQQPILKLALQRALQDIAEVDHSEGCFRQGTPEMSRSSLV
Description: The human mast cell line, LAD2, was maintained in complete StemPro-34 medium supplemented with L-glutamine (2 mM), penicillin (100 IU/mL), streptomycin (100 μg/mL), and 100 ng/mL recombinant human stem cell factor (rhSCF). Hemidepletions were performed weekly with media containing rhSCF (100 ng/mL). Rat basophilic leukemia (RBL-2H3) cells were maintained as monolayer cultures in DMEM supplemented with 10% FBS, L-glutamine (2 mM), penicillin (100 IU/mL), and streptomycin (100 μg/mL). Peritoneal mast cells (PMCs) were obtained from 6–8 weeks old C57BL/6 and Mrgprb2^-/- (C57BL/6 background) mice using i.p. injection of 8 mL MC disassociation medium that was made of HBSS with 3% FCS and 10 mM HEPES. The cells were cultured in Iscove’s Modified Dulbecco’s Medium (IMDM) supplemented with 10% FCS, murine IL-3 (10 ng/mL), and murine SCF (30 ng/mL). After 48 h, the medium and the suspended cells were removed and replaced with fresh medium containing murine IL-3 (10 ng/mL) and murine SCF (30 ng/mL). The floating cells were then used for the experiment within 2–3 weeks. Bone-marrow-derived mast cells (BMMCs) were harvested by flushing bone marrow cells from the femurs of C57BL/6 mice and culturing the cells for 4–8 weeks in IMDM supplemented with 10% FCS, murine IL-3 (10 ng/mL). The cells were then used within 4–8 weeks.
Cells (2 ×10^6) were transfected with plasmids (2 µg/µL) encoding MRGPRX2 or MRGPRX2 missense mutants using the Amaxa kit V using Amaxa Nucleofector device according to the manufacturer’s protocol. For stable transfection, cells were cultured in the presence of G-418 (1 mg/mL) and used within one month of transfection. For transient transfection, cells were used within 16–20 h after transfection. To detect MRGPRX2 expression, cells (1 × 10^6) were incubated with the PE-conjugated anti-MRGPRX2 antibody, washed in FACS buffer, fixed, and analyzed on a BD LSR II flow cytometer.
RBL-2H3 cells (5 × 10^4), LAD2 cells (10 × 10^4), and PMCs (5 × 10^3), BMMCs (5 × 10^4), were seeded into 96-well plates in a total volume of 50 μl HEPES buffer containing 0.1% bovine serum albumin (BSA) and exposed to ligands for 30 min. Cells without treatment were designated as control. In some experiments, cells were treated with Pertussis toxin (PTx). For total β-hexosaminidase release, unstimulated cells were lysed in 50 μl of 0.1% Triton X-100. Aliquots (20 μl) of supernatants or cell lysates were incubated with 20 μl of 1 mM p-nitrophenyl-N-acetyl-β- D-glucosamine for 1 h at 37 °C. The reaction was stopped by adding 250 μl of a 0.1 M Na2CO3/0.1 M NaHCO3 buffer and absorbance was measured at 405 nm.

[10] = system: Escherichia coli [ATCC 25922]; experiment: Bacterial MIC assay (Hancock modified broth assay); type: cell-based; conditions: cation-adjusted Mueller–Hinton, 18 h; for MIC: Escherichia coli, ATCC25922
Description: (§3) were tested for antibacterial activities against three Gram-negative bacteria (Escherichia coli [ATCC 25922], Pseudomonas aeruginosa [ATCC 10145], and Klebsiella pneumonia [ATCC 13883]) and two Gram-positive bacteria (Staphylococcus aureus [ATCC 27660] and Enterococcus faecalis [ATCC 29212]) using the Hancock modified broth assay. Three milliliters cation-adjusted Mueller-Hinton medium was inoculated with 20 μL of frozen bacterial stock and incubated at 37 °C on a shaker platform (250 rpm) overnight. […] All samples were done in duplicate. One set of control wells included broth-only samples with dilution buffer for testing sterility and providing blank values for the assay readings. Vehicle-control wells containing the bacterial suspension with DMSO (no compound) were also included. Following the overnight incubation (18 h), the cell growth was assessed by observing the presence of “acceptable growth”, defined by CLSI as a ≥2 mm button or definite turbidity. MIC was defined as the lowest concentration where acceptable growth is not observed.

[11] = system: Pseudomonas aeruginosa [ATCC 10145]; experiment: Bacterial MIC assay (Hancock modified broth assay); type: cell-based; conditions: ATCC10145, cation-adjusted Mueller–Hinton, 18 h
Description: as §3

[12] = system: Staphylococcus aureus [ATCC 27660]; experiment: Bacterial MIC assay (Hancock modified broth assay); type: cell-based; conditions: cation-adjusted Mueller–Hinton, 18 h; for MIC: Staphylococcus aureus, ATCC27660
Description: as §3

[13] = system: Klebsiella pneumonia [ATCC 13883]; experiment: Bacterial MIC assay (Hancock modified broth assay); type: cell-based; conditions: Klebsiella pneumoniae, ATCC13883; cation-adjusted Mueller–Hinton, 18 h
Description: as §3

[14] = system: Enterococcus faecalis [ATCC 29212]; experiment: Bacterial MIC assay (Hancock modified broth assay); type: cell-based; conditions: ATCC29212, cation-adjusted Mueller–Hinton, 18 h
Description: as §3

Structure (SMILES)	MIC [2] [µg/mL]	MIC [3] [µg/mL]	MIC A. fumigatus [3] [µg/mL]	MIC [4] [µg/mL]	cytotoxic effects on HepG2 cells at concentrations relevant for antifungal activity [5]	CC50 at 1 h [6] [µM]	CC50 at 1 h [7] [µM]	cytotoxic effects on 3T3 cells at concentrations relevant for antifungal activity [8]	EC50 [9] [nM]	MIC C. albicans [2] [µg/mL]	MIC A. flavus [4] [µg/mL]	MIC [10] [µg/mL]	MIC [11] [µg/mL]	MIC [12] [µg/mL]	MIC [13] [µg/mL]	MIC [14] [µg/mL]	fold less cytotoxic than Compound 2 [8]	percentage degranulation (β-hexosaminidase release) [9]	further results
N=C(N)NCCCCC(=O)Nc1cc(C(F)(F)F)cc(NC(=O)c2cc(C(=O)Nc3cc(C(F)(F)F)cc(NC(=O)CCCCNC(=N)N)c3O[C@@H]3CCNC3)ncn2)c1O[C@@H]1CCNC1 [Brilacidin]	–	–	–	–	–	–	–	–	–	–	–	–	–	–	–	–	–	–	efficacy in rabbit model of MRSA-induced keratitis [1]: displays efficacy
Cc1cc(C#CCNC(=N)N)ccc1-c1nnc(-c2ccc(C#CCNC(=N)N)cc2)o1 [Compound 1]	0.78 to 1.56 (≈ 1.83 to 3.66 µM)	12.5 to 50 (≈ 29.3 to 117 µM)	12.5 to 50	6.25 (≈ 14.7 µM)	little to no cytotoxic effects	257	209	little to no cytotoxic effects	800	–	–	–	–	–	–	–	–	–	–
N=C(N)N1CC=C(c2ccc(-c3nnc(-c4ccc(C5=CCN(C(=N)N)CC5)cc4)o3)cc2)CC1 [Compound 2]	0.39 (≈ 0.832 µM)	0.39 (≈ 0.832 µM)	0.39 (≈ 0.832 µM)	0.39 (≈ 0.832 µM)	little to no cytotoxic effects	151	124	little to no cytotoxic effects	3000	0.39 (≈ 0.832 µM)	0.39 (≈ 0.832 µM)	3.1 (≈ 6.62 µM)	> 100	0.1 (≈ 0.213 µM)	> 100	> 100	–	–	Bacterial MIC Escherichia coli [10]: 3.1 µg/mL; Bacterial MIC Staphylococcus aureus [12]: 0.1 µg/mL
C1=C(c2ccc(-c3cn(-c4ccc(C5=CCNCC5)cc4)nn3)cc2)CCNC1 [Compound 3]	> 100	> 100	> 100	> 100	–	111	60	–	1800	> 100	> 100	–	–	–	–	–	–	–	–
Cc1c(-c2ccc(N3CCNCC3)cc2)ncnc1-c1ccc(N2CCNCC2)cc1 [Compound 4]	> 100	> 100	–	> 100	–	> 1560	883	–	400	–	–	> 100	> 100	> 100	> 100	> 100	2–10 fold	20–25%	–
c1cc(-c2ccc(N3CCNCC3)cc2)cc(-c2ccc(N3CCNCC3)cc2)n1 [Compound 5]	> 100	> 100	–	> 100	–	447	200	–	380	–	–	> 100	> 100	> 100	> 100	> 100	2–10 fold	20–25%	–
